Test results taken from paper PMC5958214, “Chloroplastic Serine Hydroxymethyltransferase From Medicago truncatula: A Structural Characterization” (Frontiers in Plant Science, 2018).

Tests used:
[1] = target: T1, MtSHMT3 (chloroplastic serine hydroxymethyltransferase) (Medicago truncatula, UniProt G7ILW0); assay: X-ray crystallography, […] A; type: binding; settings: covalent; internal aldimine (Schiff base) with K318; full occupancy in chains A and B; crystals from 55% Tacsimate pH 7.0; PLP from expression culture
T1 construct: gene MTR_2g018290; residues 82-533, targeting peptide removed (N-truncated at F82, begins FLDYGLSEA); His6-TEV tag cut, Ser-Asn-Ala linker left; E. coli BL21 Gold, pMCSG68; homotetramer, ~197 kDa theoretical; active site shared within tight dimer

[2] = target: T1, MtSHMT3 (chloroplastic serine hydroxymethyltransferase); assay: X-ray crystallography, […] A; type: binding
[3] = target: chloroplast-targeted serine hydroxymethyltransferase from Medicago truncatula (MtSHMT3), residues 82-533 (Medicago truncatula); assay: crystal structure; three non-isomorphous crystal forms (holo/apo in Tacsimate pH 7.0; Ser-soaked in MES pH 6.5, PEG 3350, ammonium acetate; selenourea-soaked); assemblies analysed with PISA
[4] = target: chloroplast-targeted serine hydroxymethyltransferase from Medicago truncatula (MtSHMT3), residues 82-533 (Medicago truncatula); assay: SEC; HiLoad Superdex 200 16/60; 25 mM Hepes-NaOH pH 7.5, 100 mM KCl, 50 mM NaCl, 1 mM TCEP; standard curve from thyroglobulin, gamma-globulin, ovalbumin and myoglobin

T1 sequence (G7ILW0 entry or part of it): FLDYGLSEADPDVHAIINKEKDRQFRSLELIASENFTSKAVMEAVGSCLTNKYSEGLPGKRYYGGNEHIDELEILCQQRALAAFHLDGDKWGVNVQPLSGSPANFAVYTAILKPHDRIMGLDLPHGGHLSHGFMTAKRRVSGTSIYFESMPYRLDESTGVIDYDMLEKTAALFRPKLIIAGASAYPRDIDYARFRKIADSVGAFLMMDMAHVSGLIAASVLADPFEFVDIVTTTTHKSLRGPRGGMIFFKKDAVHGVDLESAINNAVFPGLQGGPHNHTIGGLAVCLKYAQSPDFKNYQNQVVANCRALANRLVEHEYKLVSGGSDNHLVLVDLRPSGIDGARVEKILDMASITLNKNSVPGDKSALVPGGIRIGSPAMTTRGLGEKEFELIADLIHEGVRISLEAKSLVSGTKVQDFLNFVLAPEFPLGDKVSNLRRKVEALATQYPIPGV

Cc1ncc(COP(=O)(O)O)c(C=O)c1O [PLP, pyridoxal 5′-phosphate]
X-ray crystallography, 1.74 A [1]: two protein chains (A and B) contain the PLP bound as a Schiff base internal aldimine

NCC(=O)O [Gly, glycine]
X-ray crystallography, 1.91 A ([2]; Ser-soaked crystal, covalent PLP-Gly external aldimine in chains B and F, free Gly with PLP internal aldimine in chains E and H, no tetrahydrofolate): PLP-Gly external aldimine (chains B and F), and PLP internal aldimine with free Gly

chloroplast-targeted serine hydroxymethyltransferase from Medicago truncatula (MtSHMT3), residues 82-533 (enzyme)
stoichiometry N [3]: 4 | stoichiometry N [4]: 4

N[C@@H](CO)C(=O)O [Ser, L-serine]
X-ray crystallography, 1.91 A ([2]; covalent, PLP-Ser external aldimine in chains A and D, crystals soaked with 200 mM Ser for 2 h, pH 6.5, no tetrahydrofolate): PLP-Ser external aldimine (chains A and D)
